Laboratory results reported in US20260283986A1, “NOVEL RAS INHIBITORS” (KHR Biotec GmbH, priority 2022, published 2026).
Where a name gives a salt, the structure may show the parent alone.

How the values were obtained:
Assay type in all cases: cell-based
NCI-H358 cells = experiment: Soft agar colony formation assay, colonies stained with MTT; settings: Homo sapiens; NCI-H358, growth in soft agar, MTT absorbance at 570 nm, 3 independent experiments
Protocol: (§1) Metabolic activity was quantified using Cell Proliferation Kit I (Roche, Basel, Switzerland). Cells were seeded in 96-well cell culture plates, using 5000 cells per well for NCI-H358 cells. After treatment, 10 μl of MTT solution was added and incubated for 2 h in CO2 incubator. Then 100 μl of solubilization buffer was added to each well and incubated overnight in CO2 incubator. Cell viability, assessed by the amount of metabolized MTT, was quantified by measuring absorbance at 570 nm. MTT assay for the growth of different tumor cell lines with RAS mutations in soft agar Alexandrine dihydrochloride. NCI-H358, H358, H2122, ASPC-1, HCT-116, T24 and HT1080 cells were used for the soft agar colony formation assay. After the treatment with Alexandrine dihydrochloride, the colonies were stained with MTT and the value was quantified by measuring absorbance at 570 nm after solubilization. The results represent mean±SSEM from 3 independent experiments.

T24 cells = experiment: as above; settings: Homo sapiens, T-24; T24, growth in soft agar, MTT absorbance at 570 nm, 3 independent experiments
Protocol: as §1

HCT-116 cells = experiment: as above; settings: Homo sapiens; HCT-116, growth in soft agar, MTT absorbance at 570 nm, 3 independent experiments
Protocol: as §1

NCI-H2122 cells = experiment: as above; settings: Homo sapiens; NCI-H2122, growth in soft agar, MTT absorbance at 570 nm, 3 independent experiments
Protocol: as §1

ASPC1 cells = experiment: as above; settings: Homo sapiens; ASPC1, growth in soft agar, MTT absorbance at 570 nm, 3 independent experiments
Protocol: as §1

HT1080 cells = experiment: as above; settings: Homo sapiens, HT-1080; HT1080, growth in soft agar, MTT absorbance at 570 nm, 3 independent experiments
Protocol: as §1

[1] = test system: KRAS mutants (G12V, G12C, G12D, G12C/Y96D); experiment: NanoBiT assay for the RAS GTP-loading in HeLa cells (LgBit-KRAS mutants / SmBit-CRAF-RBD); settings: 2 h in serum-free DMEM, normalized to DMSO
Protocol: FIG. 3: NanoBit assay for RAS activation (G12V, G12C, G12D, G12C/Y96D,)
NanoBiT assay for the RAS GTP-loading was performed in HeLa cells transfected with LgBit-KRAS mutants and SmBit-CRAF-RBD. Cells were treated with Alexandrine dihydrochloride for 2 h in serum-free DMEM. After incubation, the substrate for NanoLuc was added, and the luminescence was measured in a multiplate reader. Data were normalized to cells transfected with the indicated mutant and exposed to DMSO for 2 h. DMSO-treated cells were set as 1. The bars represent mean±SEM from 3 independent experiments.

[2] = test system: BaF3 KRAS G12C/Y96D cells; experiment: MTT assay for cell viability in 96 well cell culture plate; settings: Mus musculus, 48 h treatment
Protocol: (§2) FIGS. 4a) and 4b): MTT assay for cell viability in 96 well cell culture plate Cells were treated with Alexandrine dihydrochloride for 48 h and cell viability was evaluated by MTT assay. DMSO-treated cells were set as 1. The results shown are mean±SEM from 3 independent experiments.

BaF3 KRAS G12C cells = experiment: as above; settings: Mus musculus, 48 h treatment
Protocol: as §2

SNF96.2 cells = experiment: RASOpathie-Model, MTT assay for cell viability in 96 well cell culture plate; settings: SNF96.2, 48 h treatment
Protocol: as §2, with “FIG. 5: RASOpathie-Model of Alexandrine dihydrochloride;” for “FIGS. 4a) and 4b):”

NRAS G12V = NRAS G12V (Homo sapiens, UniProt P01111, G12V); experiment: NanoBit assay for RAS activation (LgBiT-RAS / SmBiT-CRAF RBD); settings: NRAS G12V with CRAF RBD, 2 h with inhibitor in serum free DMEM
Protocol: (§3) FIGS. 1a) and 1b): NanoBit assay for RAS activation (KRAS G12V, NRAS G12V, HRAS G12V) N-terminal LgBiT and C-terminal SmBiT construct was purchased from Promega and K, N and HRAS G12V (full length) was cloned with Xho I and Bgl II to LgBit and CRAF Ras binding domain (1-149) was cloned with EcoRI and Bgl II to SmBit. For transfections, 1 μg or 2 μg of (12 well/6 well) plasmids were transfected into cells with 0.5 mM of PEI reagent in 100 μl or 200 μl PBS. One day after transfection, cells were harvested and seeded into 96 well white plates, half area (Greiner). After an additional day the medium was changed to serum free DMEM and the cells were incubated for 2 h with inhibitor. NanoGlo assay was performed according to the manufacturer's instructions. The luminescence was measured using Tecan infinite (Tecan).

HRAS G12V = HRAS G12V (Homo sapiens, UniProt P01112, G12V); experiment: as above; settings: HRAS G12V with CRAF RBD, 2 h with inhibitor in serum free DMEM
Protocol: as §3

KRAS G12V = KRAS G12V (Homo sapiens, UniProt P01116, G12V); experiment: as above; settings: KRAS G12V with CRAF RBD, 2 h with inhibitor in serum free DMEM
Protocol: as §3

Chain of KRAS G12V (P01116 1-186 G12V): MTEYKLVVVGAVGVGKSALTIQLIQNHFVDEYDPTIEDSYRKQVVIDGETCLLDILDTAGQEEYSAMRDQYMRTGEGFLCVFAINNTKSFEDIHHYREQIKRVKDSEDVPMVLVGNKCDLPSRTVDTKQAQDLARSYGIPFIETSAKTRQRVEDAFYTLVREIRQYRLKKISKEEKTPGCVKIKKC
Chain of HRAS G12V (P01112 1-186 G12V): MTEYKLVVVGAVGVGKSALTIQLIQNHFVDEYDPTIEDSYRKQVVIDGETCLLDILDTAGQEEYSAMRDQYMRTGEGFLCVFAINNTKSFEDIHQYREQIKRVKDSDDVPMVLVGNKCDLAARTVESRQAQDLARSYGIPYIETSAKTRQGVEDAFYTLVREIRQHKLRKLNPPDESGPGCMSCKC
Chain of NRAS G12V (P01111 1-186 G12V): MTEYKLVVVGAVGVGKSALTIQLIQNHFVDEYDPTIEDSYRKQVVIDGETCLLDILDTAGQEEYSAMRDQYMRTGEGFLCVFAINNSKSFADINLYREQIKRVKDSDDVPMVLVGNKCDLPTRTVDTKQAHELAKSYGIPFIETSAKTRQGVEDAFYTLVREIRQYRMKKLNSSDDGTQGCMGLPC

IC50 (NCI-H358 cells): 1280 nM | IC50 (T24 cells): 1700 nM | IC50 (HCT-116 cells): 1910 nM | IC50 (NCI-H2122 cells): 1610 nM | IC50 (ASPC1 cells): 1760 nM | IC50 (HT1080 cells): 310 nM | IC50 [2]: 1540 nM | IC50 (BaF3 KRAS G12C cells): 1170 nM | inhibition of N-RAS activation (NanoBit luminescence) (NRAS G12V): inhibits | inhibition of H-RAS activation (NanoBit luminescence) (HRAS G12V): inhibits | inhibition of K-RAS activation (NanoBit luminescence) (KRAS G12V): inhibits
SMILES: CCCCC(CC)CNC(=N)NC(=N)NCCCCCCNC(=N)NC(=N)NCC(CC)CCCC (stereo not shown) [Alexandrine dihydrochloride, 1,1′-Hexamethylenebis[5-(2-ethylhex-1-yl)]biguanide dihydrochloride]
inhibition of RAS activation of KRAS mutants (NanoBiT luminescence) [1]: inhibits different RAS-isoforms | IC50 (SNF96.2 cells): 350 nM
